Laboratory results: ChEMBL document CHEMBL1201862, “PubChem BioAssay data set” (2004)
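Each compound was tested at five concentrations against cells in 96-well plates for 48 hours. GI50 = concentration required for 50% inhibition of growth.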 Active and inactive are the calls of the source. Cut-off read from the data, not from the text of the source: active = GI50 up to about 1.1 µM and inactive = higher. Numbered stars: 1 amine (or outer) side, 2 acyl side, 3 side chain; on linkers, the order of the positions; unused ones are H or OH. Square brackets hold non-standard residues; d marks the D form. Peptide text beside a SMILES is read from it. X55 = CC[C@H](C)[C@H](OC(=O)[C@@H](C)[C@@H](CC)N[*:1])C(=O)[*:2]; X31 = C[C@H](N[*:1])C(=O)C(C)(C)C(=O)[*:2]; NMeY = CN[C@@H](Cc1ccc(O)cc1)C(=O)O; NMeL = CN[C@@H](CC(C)C)C(=O)O; NMeV = CN[C@H](C(=O)O)C(C)C

Key:
Assay in all cases: DTP human tumour cell line panel, 48 h
OVCAR-4 = system: OVCAR-4
LOX IMVI = system: LOX IMVI
KM-20L2 = system: KM-20L2
HOP-62 = system: HOP-62
HT-29 = system: HT-29
COLO 205 = system: COLO 205
OVCAR-5 = system: OVCAR-5
HCT-116 = system: HCT-116
CAKI-1 = system: CAKI-1
SNB-75 = system: SNB-75
K562 = system: K562
IGROV-1 = system: IGROV-1
SK-OV-3 = system: SK-OV-3
Malme-3M = system: Malme-3M
HCT-15 = system: HCT-15
RXF 393 = system: RXF 393
CCRF-CEM = system: CCRF-CEM
MDA-N = system: MDA-N
MCF7 = system: MCF7
MDA-MB-435 = system: MDA-MB-435

Row | SMILES | GI50 (OVCAR-4) | GI50 (LOX IMVI) | GI50 (KM-20L2) | GI50 (HOP-62) | GI50 (HT-29) | GI50 (COLO 205) | GI50 (OVCAR-5) | GI50 (HCT-116) | GI50 (CAKI-1) | GI50 (SNB-75) | GI50 (K562) | GI50 (IGROV-1) | GI50 (SK-OV-3) | GI50 (Malme-3M) | GI50 (HCT-15) | GI50 (RXF 393) | GI50 (CCRF-CEM) | GI50 (MDA-N) | GI50 (MCF7) | GI50 (MDA-MB-435)
1 | C/C(CCc1ccccc1)=N\NC(N)=S | > 100 µM (inactive) | > 100 µM (inactive) | > 100 µM (inactive) | > 100 µM (inactive) | 27.8 µM (inactive) | > 100 µM (inactive) | > 100 µM (inactive) | > 100 µM (inactive) | > 100 µM (inactive) | 76.4 µM (inactive) | > 100 µM (inactive) | > 100 µM (inactive) | > 100 µM (inactive) | > 100 µM (inactive) | > 100 µM | 42.3 µM (inactive) | 75.5 µM (inactive) | – | – | –
2 | CCOc1ccccc1NC(=O)CCC(=O)OC | > 100 µM (inactive) | > 31.6 µM (inactive) | > 100 µM (inactive) | > 100 µM (inactive) | > 100 µM (inactive) | > 58.2 µM (inactive) | > 100 µM (inactive) | > 100 µM (inactive) | > 100 µM (inactive) | > 100 µM (inactive) | > 56.2 µM (inactive) | > 100 µM (inactive) | > 100 µM (inactive) | > 100 µM (inactive) | > 74.5 µM | > 100 µM (inactive) | > 45.6 µM (inactive) | – | – | –
3 | C/C=C/C1(C)/C(=N\O)C(C)(CCC)C(=O)N1O (stereo not drawn) | > 100 µM (inactive) | > 100 µM (inactive) | > 100 µM (inactive) | > 100 µM (inactive) | > 100 µM (inactive) | > 100 µM (inactive) | > 100 µM (inactive) | > 100 µM (inactive) | > 100 µM (inactive) | > 100 µM (inactive) | > 100 µM (inactive) | > 100 µM (inactive) | > 100 µM (inactive) | > 100 µM (inactive) | > 100 µM | > 100 µM (inactive) | > 100 µM (inactive) | – | – | –
4 | NC(=O)N/N=C1/CCCC/C1=C\c1ccccc1 | > 100 µM (inactive) | > 100 µM (inactive) | > 100 µM (inactive) | > 100 µM (inactive) | > 100 µM (inactive) | > 100 µM (inactive) | > 100 µM (inactive) | > 100 µM (inactive) | > 100 µM (inactive) | 76.6 µM (inactive) | > 100 µM (inactive) | > 100 µM (inactive) | > 100 µM (inactive) | > 100 µM (inactive) | > 100 µM | > 100 µM (inactive) | > 100 µM (inactive) | – | – | –
5 | C#Cc1cc(CN(CC(=O)OC(C)(C)C)CC(=O)OC(C)(C)C)nc(CN(CC(=O)OC(C)(C)C)CC(=O)OC(C)(C)C)c1 | 6.19 µM (inactive) | 2.37 µM (inactive) | 5.43 µM (inactive) | 3.92 µM (inactive) | 4.4 µM (inactive) | 7.36 µM (inactive) | 21.6 µM (inactive) | – | 10 µM (inactive) | 11.6 µM (inactive) | 4.6 µM (inactive) | 7.66 µM (inactive) | 6.55 µM (inactive) | 4.17 µM (inactive) | 24.6 µM | 2.84 µM (inactive) | 2.96 µM (inactive) | – | – | –
6 | O=C1[C@@H]2C(c3ccc(Cl)cc3Cl)=NO[C@@H]2C(=O)N1c1ccc(Cc2ccc(N3C(=O)[C@H]4C(c5ccc(Cl)cc5Cl)=NO[C@H]4C3=O)cc2)cc1 | > 100 µM (inactive) | 47.8 µM (inactive) | > 100 µM (inactive) | > 100 µM (inactive) | > 100 µM (inactive) | 50.9 µM (inactive) | > 100 µM (inactive) | – | 60.4 µM (inactive) | > 100 µM (inactive) | 29.3 µM (inactive) | 70 µM (inactive) | > 100 µM (inactive) | 84.3 µM (inactive) | 46.6 µM | 13.6 µM (inactive) | 12.9 µM (inactive) | – | – | –
7 | Cc1cc(C)nc(NS(=O)(=O)c2ccc(Nc3c4ccccc4nc4c(C(=O)Nc5ccc(S(=O)(=O)N=C(N)N)cc5)ccc(Cl)c34)cc2)n1 | 23.9 µM (inactive) | 19.4 µM (inactive) | 35.6 µM (inactive) | 23.2 µM (inactive) | 36.3 µM (inactive) | 55 µM (inactive) | 41.2 µM (inactive) | 21.9 µM (inactive) | 36.1 µM (inactive) | 35.7 µM (inactive) | 24.2 µM (inactive) | – | 22.9 µM (inactive) | 33.6 µM (inactive) | – | 18.2 µM (inactive) | – | – | – | –
8 | COc1ccc(C2CCC(Cl)(OC)CC2C=O)cc1 (stereo not drawn) | > 100 µM (inactive) | 13.3 µM (inactive) | 67.1 µM (inactive) | 94 µM (inactive) | 50.7 µM (inactive) | > 100 µM (inactive) | > 100 µM (inactive) | 52 µM (inactive) | 39.8 µM (inactive) | 31.4 µM (inactive) | > 100 µM (inactive) | > 100 µM (inactive) | > 100 µM (inactive) | 44.9 µM (inactive) | 49.4 µM | 0.128 µM (active) | 29.7 µM (inactive) | – | – | –
9 | Cc1ccccc1CN1CC=c2ccccc2=N1 | > 100 µM (inactive) | > 100 µM (inactive) | > 100 µM (inactive) | > 100 µM (inactive) | > 100 µM (inactive) | > 100 µM (inactive) | > 100 µM (inactive) | > 10 µM (inactive) | > 100 µM (inactive) | 50.9 µM (inactive) | > 100 µM (inactive) | > 100 µM (inactive) | > 100 µM (inactive) | > 100 µM (inactive) | > 100 µM | – | > 100 µM (inactive) | – | – | –
10 | O=C1C=CC(=CC=C2C=CN(CCCCCCCCCCC(=O)NCCCCCCCCCCCC(=O)O)C=C2)C=C1 | > 100 µM (inactive) | > 100 µM (inactive) | > 100 µM (inactive) | > 100 µM (inactive) | > 100 µM (inactive) | > 100 µM (inactive) | > 100 µM (inactive) | > 100 µM (inactive) | > 100 µM (inactive) | > 100 µM (inactive) | > 100 µM (inactive) | > 100 µM (inactive) | > 100 µM (inactive) | > 100 µM (inactive) | > 100 µM | > 100 µM (inactive) | > 100 µM (inactive) | – | – | –
11 | CC1C[C@H](OC(N)=O)C(C)CC1=O (stereo partly drawn) | > 100 µM (inactive) | > 100 µM (inactive) | > 100 µM (inactive) | > 100 µM (inactive) | > 100 µM (inactive) | > 100 µM (inactive) | > 100 µM (inactive) | > 100 µM (inactive) | > 100 µM (inactive) | > 100 µM (inactive) | > 100 µM (inactive) | > 100 µM (inactive) | > 100 µM (inactive) | > 100 µM (inactive) | > 100 µM | > 100 µM (inactive) | > 100 µM (inactive) | – | – | –
12 | Oc1cc(-c2ccccc2)nc2cc3c(cc12)OCO3 | > 97.3 µM (inactive) | 11.6 µM (inactive) | 7.35 µM (inactive) | 9.55 µM (inactive) | 7.18 µM (inactive) | 6.21 µM (inactive) | > 84.3 µM (inactive) | 8 µM (inactive) | – | 2.6 µM (inactive) | 4.06 µM (inactive) | 13.6 µM (inactive) | 6.92 µM (inactive) | 3.76 µM (inactive) | 18.8 µM | 5.69 µM (inactive) | 12.2 µM (inactive) | 4.11 µM (inactive) | 36.8 µM (inactive) | –
13 | CC[C@H](C)[C@@H]1OC(=O)[C@@H](C)[C@@H](CC)NC(=O)[C@H](C)NC(=O)C(C)(C)C(=O)[C@H](C)NC(=O)[C@H](Cc2ccc(OC)cc2)N(C)C(=O)[C@H](C(C)C)N(C)C(=O)CNC(=O)[C@H](CC(C)C)N(C)C(=O)CNC1=O [DOLASTATIN 11] (cyclo(A[X55]G[NMeL]G[NMeV][NMeY](Me)[X31])) | 0.0507 µM (active) | 0.01 µM (active) | < 0.0197 µM (active) | 0.0497 µM (active) | 0.0264 µM (active) | – | 0.9 µM (active) | 0.154 µM (active) | 0.034 µM (active) | 0.0847 µM (active) | 0.0885 µM (active) | 0.0355 µM (active) | 0.229 µM (active) | 0.13 µM (active) | 0.67 µM | 0.0223 µM (active) | 0.0274 µM (active) | 0.0855 µM (active) | 0.0592 µM (active) | 60.3 nM (active)
